{"source": "patent US12303490B2", "about": "“Compositions and methods for suppressing and/or treating neurodegenerative diseases and/or a clinical condition thereof” (CK Regeon Inc., priority 2019, dated 2025)", "key": {"[1]": {"tested_on": "serum active GLP-1", "assay": "Serum active GLP-1 in NASH mouse models (STZ-induced, MCD-induced)", "assay_type": "in vivo, mice", "settings": "FIG. 6A-6B", "protocol": "FIG. 6A. Graph illustrating the serum active GLP-1 levels in NCD-mice (“Chow”) and RFD-fed, STZ-induced NASH mice that were treated with vehicle, A3334, A3051, selonsertib, and ocaliva.\nFIG. 6B. Graph illustrating the serum active GLP-1 levels in NCD-mice (“Chow”) and RFD-fed, methionine-choline deficient diet (MCD)-induced NASH mice that were treated with vehicle, A3334, A3051, selonsertib, ocaliva (“OCA”), and A3486.\nBlood chemistry. Total blood of mice was collected by cardiac puncture. The blood was allowed to clot for 30 min and was then centrifuged for 30 min at 3,000×g to obtain supernatant to measure active GLP-1 concentration. ELISA assay kits were used to assess serum active GLP-1 (7-36)."}, "[2]": {"tested_on": "rat neuronal stem cells (NSCs)", "assay": "Neural stem cell (NSC) differentiation, cell morphology", "assay_type": "cell-based", "settings": "0, 1, 5 and 10 μM; 24 hours; medium with bFGF", "protocol": "Neural stem cell (NSCs) culture. NSCs were extracted from the forebrain of E14.5 rats and maintained in an undifferentiated state by culturing in medium containing 10 ng/ml of bFGF (Peprotech). Undifferentiated NSCs (1×10^5) were treated with of each compound (10 μM) and cell morphology was assessed by capturing black and white images of the cells after 24 h.\nReferring now to FIG. 7A-7B, NSCs were isolated form E14 mice embryos, and maintained in the maintenance medium (supplemented) with bFGF and EGF. The neuronal differentiation was induced by treating different concentrations of A3051. Cell morphologies were captured at 24 hours after treatment of the indirubin analog 3051 using a bright-field optical microscope."}, "[3]": {"tested_on": "β-catenin, CXXC5 and p-GSK3β (S9) in H4/SWE cells", "assay": "Western blot assay in H4/SWE cells", "assay_type": "cell-based", "settings": "FIG. 9A", "protocol": "Western blot assay. H4 and H4/SWE Cells were ground with a mortar and pestle before lysis in RIPA buffer (150 mM NaCl, 10 mM Tris, pH 7.2, 0.1% SDS, 1.0% Triton X-100, 1% sodium deoxycholate, and 5 mM EDTA). Samples were separated on 6-12% SDS polyacrylamide gels and transferred onto PROTRAN nitrocellulose membranes (Schleicher and Schuell Co.). The membranes were blocked with PBS containing 5% non-fat dry skim milk and 0.07% (vol/vol) Tween 20 and incubated with antibody specific for β-catenin (1:1,000, Santa Cruz Biotechnology, Inc.), CXXC5 (1:500, Santa Cruz Biotechnology, Inc.), p-GSK3β(S9) (1:500, Santa Cruz Biotechnology, Inc.). The membranes were then incubated with horseradish peroxidase-conjugated anti-rabbit (1:5,000, Bio-Rad Laboratories) or anti-mouse (1:5000, Cell Signaling Technology) IgG secondary antibody. Protein bands were visualized with enhanced chemiluminescence (GE Healthcare) using a luminescent image analyzer, LAS-3000 (Fujifilm). Western blot bands were analyzed using Multi-Gauge V3.0 software (Fujifilm)."}, "[4]": {"tested_on": "β-catenin in H4/SWE cells", "assay": "Immunocytochemical analysis of β-catenin in H4/SWE cells", "assay_type": "cell-based", "settings": "FIG. 9B", "protocol": "Immunocytochemical analysis. H4 or H4/SWE cells treated with each compound were washed with PBS and fixed in 4% (wt/vol) paraformaldehyde (PFA) in PBS for 15 min at room temperature. The cells were then washed with PBS and permeabilized with 0.1% (vol/vol) Triton X-100 in PBS for 15 min. After washing with PBS, the cells were incubated with 10% bovine serum albumin (BSA) in PBS for 30 min and then with antibodies specific for β-catenin (1:100; BD) overnight at 4° C. The cells were washed in PBS and incubated with Alexa Fluor 488—conjugated IgG secondary antibody (1:400; Molecular Probes) at room temperature for 1 h. Cell nuclei were counterstained with DAPI for 10 min and the stained samples were examined under a LSM510 META microscope."}, "[5]": {"tested_on": "secreted human amyloid β-42 in H4/SWE cells", "assay": "Human Aβ42 ELISA assay in H4/SWE cells", "assay_type": "cell-based", "settings": "24 h, FIG. 10", "protocol": "Human Aβ42 ELISA assay. H4 or H4/SWE cells were cultured in Dulbecco's Modified Eagle's Medium (DMEM, Gibco) containing 10% fetal bovine serum (FBS) and grown to confluence in a 5% CO2 and 95% air humidified atmosphere. The cells were seeded in 6-well plate in DMEM supplemented with 10% FBS and allowed to adhere overnight. The cells were treated with each compound (1˜20 uM) for 24 h and collected in 1 ml of medium. The samples were treated with protease inhibitor cocktail (PIC) to avoid the degradation of Amyloid β by protease and centrifuged at 3000 rpm for 3 min. Experiments were performed according to the guidance of Human Aβ42 ELISA Kit protocol (Invitrogen). The amount of secreted Amyloid β was normalized by measuring total protein concentration."}}}
{"smiles": "CO/N=C1/C(=C2/C(=O)Nc3cc(Cl)c(Cl)cc32)Nc2ccccc21", "note": "[Compound A3051, 5,6-dichloroindirubin-3′-methoxime]", "values": [{"measurement": "active GLP-1 expression in blood serum", "setting": "[1]", "result": "significantly rescued (increased)"}, {"measurement": "neural differentiation of NSCs (cell morphology)", "setting": "[2]", "result": "induced neural differentiation"}, {"measurement": "level of CXXC5 (western blot)", "setting": "[3]", "result": "decreased"}, {"measurement": "level of β-catenin (western blot)", "setting": "[3]", "result": "restored"}, {"measurement": "p-GSK3β (S9) (western blot)", "setting": "[3]", "result": "increased"}, {"measurement": "nuclear translocation of β-catenin", "setting": "[4]", "result": "increased"}, {"measurement": "secretion of Aβ-42", "setting": "[5]", "result": "inhibited"}]}
